Data taken from US20220117938A1, “COMBINATON THERAPY WITH A DON PRODRUG AND AN IMMUNE CHECKPOINT INHIBITOR” (DRACEN PHARMACEUTICALS, INC., priority 2019, published 2022).

System: Ninety four (94) cell lines and PBMC
Experiment: Cell viability assay, SRB staining, 94 cell lines and PBMC (Example 7, Experiment 2)
Assay type: cell-based
Experimental: Ninety four (94) cell lines were seeded at a density varying from 500 to 7000 cells/well depending on their growth characteristics. PBMC were seeded at the density 50,000-100,000 cells/well. Cells were incubated for 48 h prior to compound treatment. Compound 1 and DON were evaluated at a concertation range of 1 nM up to 100 μM. Compound 1 dilutions in DMSO and DON dilutions in PBS were performed in 96-well 0.5 mL plates (Greiner Bio-One, Germany). Compounds were then diluted 1:100 in RPMI medium. […] of cells were treated by mixing with 10 μL of the compound-containing media (resulting in a final DMSO concentration of 0.1%). The cells were allowed to grow at 37° C. for 120 h. Cells were fixed to the surface by addition of 10% TCA (for adherent growing cells) or 50% TCA (for semi-adherent growing cells or cells growing in suspension). After an hour of incubation at 4° C., plates were washed twice with 400 μL of deionized water and dried. Cells were then stained with 100 μL of 0.04% wt/v SRB. The plates were incubated at room temperature for at least 30 min and washed six times with 1% acetic acid to remove unbound stain. The plates were left to dry at room temperature and bound SRB was solubilized with 100 μL of 10 mM Tris base. Optical density was measured at 492, 520 and 560 nm using a Deelux-LED96 plate reader (Deelux Labortechnik GmbH, Germany).
Cell lines were purchased directly from the ATCC, NCI, CLS, and DSMZ cell line collections. A master bank and working aliquots were prepared. Cells used for the study had undergone less than 20 passages. To rule out potential contamination or wrong assignment, all cell lines were tested by STR analysis. Absence of mycoplasma contamination was confirmed for all cell lines used in the studies.
The cell lines were grown in the media recommended by the suppliers in the presence of 100 U/mL penicillin and 100 μg/mL streptomycin supplied with 10% FCS (PAA, Germany). RPMI 1640, DMEM, and MEM Earle's medium were from PAA (Coelbe, Germany), supplements 2 mM L-glutamine, 1 mM Na-pyruvate and 1% NEAA were from PAA (Coelbe, Germany), 2.5% horse serum, hydrocortisone, transferin, beta-estradiol, selenite and 1 U/mL insulin from Sigma-Aldrich (Munich, Germany). RPMI medium was used for culturing the following cell lines: 5637, 22RV1, 7860, A2780, A431, A549, ACHN, ASPC1, BT20, BXPC3, CAKI1, CLS439, COLO205, COLO678, DLD1, DU145, EFO21, EJ28, HCT15, HS578T, IGROV1, JAR, LOVO, MCF7, MDA MB231, MDA MB435, MDA MB436, MDA MB468, MHHES1, MT3, NCI H292, NCI H358M, NCI H460, NCIH82, OVCAR3, OVCAR4, PANC 1005 (addition of insulin), PBMC, PC3, RDES, SF268, SF295, SKBR3, SK MEL28, SKMEL5, SKOV3, SW620, U2OS, UMUC3, and U031.
DMEM medium was used to culture A204, A375, A673, C33A, CASKI, HCT116, HEPG2, HS729, HT29, J82, MG63, MIAPACA2 (addition of horse serum), PANC1, PLCPRF5, RD, SAOS2, SKLMS1, SKNAS, SNB75, T24, and TE671.
MEM Earle's medium was used for CACO2, CALU6, HEK293, HELA, HT1080, IMR90, JEG3, JIMT1, SKHEP1, SKNSH, and U87MG. Cell seeding conditions were optimized for each cell line. The cell seeding density varied from 500 to 7000 cells/well depending on their growth characteristics. Peripheral blood mononuclear cells (PBMC) were freshly isolated from whole blood of an anonymous donor through density gradient centrifugation using Ficoll solution (d=1.077). In short, blood was diluted 1:1 with PBS and carefully placed on the Ficoll. After centrifugation 1000×g for 15 min (braking rate 0), the ring containing mainly leucocytes was collected in PBS followed by three times washing with PBS to reduce the platelets. PBMC were seeded at the density 50,000-100,000 cells/well. Cells were grown in 5% CO2 atmosphere in a NB-203XXL incubator (N-BIOTEK Inc., Korea).
Ninety-four cell lines were tested in parallel. Cell growth and treatment were performed in 96 well microtitre plates CELLSTAR® (Greiner Bio-One, Germany). […]

[1] = Homo sapiens, 22Rv1, 22RV1, prostate
[2] = Homo sapiens, 786-0, 786O, kidney
[3] = Homo sapiens, A204, A204, muscle
[4] = Homo sapiens, A673, A673, muscle
[5] = Homo sapiens, A2780, A2780, ovary
[6] = Homo sapiens, A-375, A375, skin
[7] = Homo sapiens, A-431, A431, skin
[8] = Homo sapiens, ASPC1, ASPC1, pancreas
[9] = Homo sapiens, BT-20, BT20, breast
[10] = Homo sapiens, C-33-A, C33A, endometrial
[11] = Homo sapiens, CAKI-1, CAKI1, kidney
[12] = Homo sapiens, COLO 205, COLO205, colon
[13] = Homo sapiens, COLO-678, COLO678, colon
[14] = Homo sapiens, Ca-Ski, CASKI, endometrial
[15] = Homo sapiens, Caco-2, CACO2, colon
[16] = Homo sapiens, Calu-6, CALU6, lung
[17] = Homo sapiens, DLD-1, DLD1, colon
[18] = Homo sapiens, DU-145, DU145, prostate
[19] = Homo sapiens, EFO-21, EFO21, ovary
[20] = Homo sapiens, EJ-28, EJ28, bladder
[21] = Homo sapiens, Granta-519, GRANTA-519, hematological
[22] = Homo sapiens, HCT-15, HCT15, colon
[23] = Homo sapiens, HCT-116, HCT116, colon
[24] = Homo sapiens, HEK293, HEK293, kidney
[25] = Homo sapiens, HL-60, HL-60, hematological
[26] = Homo sapiens, HT-29, HT29, colon
[27] = Homo sapiens, HT-1080, HT1080, connective tissue
[28] = Homo sapiens, HeLa, endometrial
[29] = Homo sapiens, HepG2, HEPG2, liver
[30] = Homo sapiens, IGROV-1, IGROV1, ovary
[31] = Homo sapiens, JEG-3, JEG3, placenta
[32] = Homo sapiens, JIMT-1, JIMT1, breast
[33] = Homo sapiens, K562, K-562, hematological
[34] = Homo sapiens, Kasumi 1, KASUMI-1, hematological
[35] = Homo sapiens, L-363, L-363, hematological
[36] = Homo sapiens, MCF7, MCF7, breast
[37] = Homo sapiens, MDA-MB-231, MDAMB231, breast
[38] = Homo sapiens, MDA-MB-435, MDAMB435, skin

For `[N-]=[N+]=CC(=O)CC[C@H](N)C(=O)O` [DON, 6-Diazo-5-oxo-L-norleucine, reference compound], which IC50 (5637, bladder) is on record?
Its IC50 is 0.881 µM.

And the IC50 (CLS439, bladder)?
Its IC50 is 7.82 µM.

What about the GI50 [1] of the same molecule?
The GI50 was 0.981 µM.

What about the IC50 [1] of the same molecule?
The IC50 was 1.04 µM.

What about the GI50 [2] of the same molecule?
The GI50 was 2.39 µM.

What about the IC50 [2] of the same molecule?
Its IC50 is 2.93 µM.

And the GI50 [3]?
The GI50 was 4.99 µM.

And the IC50 [3]?
The IC50 was 17 µM.

What about the GI50 (Homo sapiens, A549, A549, lung) of the same molecule?
Its GI50 is 4.05 µM.

And the IC50 (Homo sapiens, A549, A549, lung)?
Its IC50 is 4.49 µM.

What about the GI50 [4] of the same molecule?
The GI50 was 1.95 µM.

And the IC50 [4]?
Its IC50 is 2.2 µM.

What about the GI50 [5] of the same molecule?
Its GI50 is 3.65 µM.

And the IC50 [5]?
The IC50 was 3.9 µM.

And the GI50 [6]?
Its GI50 is 3.15 µM.

And the IC50 [6]?
Its IC50 is 3.33 µM.

What about the GI50 [7] of the same molecule?
Its GI50 is 6.5 µM.

What about the IC50 [7] of the same molecule?
The IC50 was 8.52 µM.

What about the GI50 (Homo sapiens, ACHN, kidney) of the same molecule?
The GI50 was 5.34 µM.

And the IC50 (Homo sapiens, ACHN, kidney)?
Its IC50 is 6.34 µM.

And the GI50 [8]?
The GI50 was 3.92 µM.

What about the IC50 [8] of the same molecule?
The IC50 was 5.58 µM.

And the GI50 [9]?
Its GI50 is 16.8 µM.

And the IC50 [9]?
Its IC50 is 51.1 µM.

What about the GI50 (Homo sapiens, BXPC-3, BXPC3, pancreas) of the same molecule?
Its GI50 is 1.45 µM.

And the GI50 [10]?
Its GI50 is 6.48 µM.

What about the IC50 [10] of the same molecule?
The IC50 was 7.04 µM.

And the GI50 [11]?
The GI50 was 1.16 µM.

And the IC50 [11]?
Its IC50 is 1.62 µM.

And the GI50 [12]?
The GI50 was 1.32 µM.

And the IC50 [12]?
The IC50 was 2.01 µM.

What about the GI50 [13] of the same molecule?
The GI50 was 58.9 µM.

What about the IC50 [13] of the same molecule?
Its IC50 is 152 µM.

And the GI50 [14]?
Its GI50 is 5.49 µM.

What about the IC50 [14] of the same molecule?
The IC50 was 6.51 µM.

What about the GI50 [15] of the same molecule?
The GI50 was 11.2 µM.

What about the IC50 [15] of the same molecule?
The IC50 was 18.6 µM.

What about the GI50 [16] of the same molecule?
Its GI50 is 6.05 µM.

And the IC50 [16]?
The IC50 was 6.97 µM.

What about the GI50 [17] of the same molecule?
The GI50 was 0.906 µM.

And the IC50 [17]?
Its IC50 is 1.02 µM.

What about the GI50 [18] of the same molecule?
The GI50 was 5.24 µM.

What about the IC50 [18] of the same molecule?
The IC50 was 6.16 µM.

What about the GI50 [19] of the same molecule?
The GI50 was 6.32 µM.

And the IC50 [19]?
Its IC50 is 14.6 µM.

What about the GI50 [20] of the same molecule?
The GI50 was 4.19 µM.

And the IC50 [20]?
Its IC50 is 4.89 µM.

What about the GI50 [21] of the same molecule?
The GI50 was 0.779 µM.

What about the IC50 [21] of the same molecule?
Its IC50 is 0.812 µM.

What about the GI50 [22] of the same molecule?
Its GI50 is 1.13 µM.

What about the IC50 [22] of the same molecule?
Its IC50 is 1.3 µM.

What about the GI50 [23] of the same molecule?
The GI50 was 2.06 µM.

And the IC50 [23]?
The IC50 was 2.1 µM.

And the GI50 [24]?
The GI50 was 10.6 µM.

What about the IC50 [24] of the same molecule?
Its IC50 is 15.2 µM.

What about the GI50 [25] of the same molecule?
Its GI50 is 1.56 µM.

And the IC50 [25]?
Its IC50 is 1.6 µM.

What about the GI50 [26] of the same molecule?
Its GI50 is 2.89 µM.

What about the IC50 [26] of the same molecule?
Its IC50 is 3.41 µM.

What about the GI50 [27] of the same molecule?
The GI50 was 0.666 µM.

What about the IC50 [27] of the same molecule?
Its IC50 is 0.795 µM.

What about the GI50 [28] of the same molecule?
The GI50 was 8.17 µM.

What about the IC50 [28] of the same molecule?
The IC50 was 9.13 µM.

What about the GI50 [29] of the same molecule?
Its GI50 is 7.3 µM.

What about the IC50 [29] of the same molecule?
Its IC50 is 8.97 µM.

What about the GI50 (Homo sapiens, Hs-578T, HS578T, breast) of the same molecule?
Its GI50 is 25.1 µM.

What about the GI50 [30] of the same molecule?
Its GI50 is 6.99 µM.

What about the IC50 [30] of the same molecule?
Its IC50 is 10.1 µM.

And the GI50 (Homo sapiens, IMR-90, IMR90, lung)?
Its GI50 is 11.8 µM.

What about the GI50 [31] of the same molecule?
Its GI50 is 5.79 µM.

And the IC50 [31]?
Its IC50 is 6.64 µM.

What about the GI50 [32] of the same molecule?
Its GI50 is 11.2 µM.

What about the IC50 [32] of the same molecule?
Its IC50 is 26.8 µM.

What about the GI50 [33] of the same molecule?
Its GI50 is 1.06 µM.

What about the IC50 [33] of the same molecule?
Its IC50 is 1.17 µM.

What about the GI50 [34] of the same molecule?
Its GI50 is 5.17 µM.

And the IC50 [34]?
Its IC50 is 12.7 µM.

What about the GI50 [35] of the same molecule?
Its GI50 is 0.343 µM.

What about the IC50 [35] of the same molecule?
The IC50 was 0.522 µM.

What about the GI50 (Homo sapiens, LoVo, colon) of the same molecule?
The GI50 was 4.36 µM.

What about the IC50 (Homo sapiens, LoVo, colon) of the same molecule?
The IC50 was 4.66 µM.

What about the GI50 [36] of the same molecule?
The GI50 was 2.09 µM.

What about the IC50 [36] of the same molecule?
The IC50 was 6.07 µM.

What about the GI50 [37] of the same molecule?
Its GI50 is 8.37 µM.

And the IC50 [37]?
The IC50 was 13.8 µM.

And the GI50 [38]?
The GI50 was 2.48 µM.

What about the IC50 [38] of the same molecule?
Its IC50 is 2.66 µM.

And the GI50 (Homo sapiens, MDA-MB-436, MDAMB436, breast)?
Its GI50 is 13.3 µM.
